Measurements published in US20100075852A1, “HERBICIDE COMBINATION COMPRISING DIMETHOXYTRIAZINYL-SUBSTITUTED DIFLUOROMETHANESULFONYLANILIDES” (BAYER CROPSCIENCE AG, priority 2008, published 2010).
Read-outs that look alike come from different tables or passages of the source.

Assays:
Experiment in all cases: Post-emergence action against weeds, greenhouse pot test, visual scoring
Format in all cases: in vivo
Oryza sativa (ORYSA) = settings: read-out: % activity found; for inhibition at 7 g/ha: 7 g of ai/ha alone; for inhibition at 210 g/ha: 210 g of ai/ha alone
Method: (§1) Seeds or rhizome pieces of mono- and dicotyledonous harmful and useful plants were placed in peat pots (diameter 4 cm) filled with sandy loam and then covered with soil. The pots were kept in a greenhouse under optimum conditions. In addition, harmful plants encountered in paddy rice cultivation were cultivated in pots with a water level 2 cm above the soil surface.
(§2) About three weeks after the start of the cultivation, the test plants were treated at the 2- to 3-leaf stage. The herbicides, formulated as powder or liquid concentrates, were, either alone or in the combinations according to the invention, sprayed in various dosages on to the green parts of the plants using an application rate of 600 l of water/ha (converted). For further cultivation of the plants, the pots were then again kept under optimum conditions in a greenhouse.
(§3) The visual scoring of the herbicidal effects was carried out in intervals up to 21 days after the treatment. Scoring was carried out in percent in comparison to the untreated control plants. 0%=no herbicidal activity, 100%=complete herbicidal activity=complete kill.
(§4) The percentages from the treatments with the herbicides alone (=individual application) and with the combinations according to the invention (=mixtures) were employed to calculate interactions using the method of Colby. When the observed efficacies of the mixtures exceed the formal sum of the values of the tests with individual applications, they also exceed the expected value according to Colby, which is calculated using the formula below (cf. S. R. Colby; in Weeds 15 (1967) pp. 20 to 22):
(§5) • A, B=activity of components A and B in percent at a dosage of a and b g of ai/ha (=gramm of active substance per hectare), respectively. • E=expected value in % at a dosage of a+b g of ai/ha.

Zea mays (ZEAMX) = settings: for inhibition at 36 g/ha: 36 g of ai/ha alone
Method: as §1, §2, §3
(§6) The percentages from the treatments with the herbicides alone (=individual application) and with the combinations according to the invention (=mixtures) were employed to calculate interactions using the method of Colby.
as §5

[1] = test system: Cyperus esculentus (CYPES)
Method: as §1, §2, §3, §6, §5

Avena fatua (AVEFA) = settings: Avena fatua, post-emergence, 504 h, read-out: % activity found
Method: as §1, §2, §3, §6, §5

Viola tricolor (VIOTR) = settings: Viola tricolor, post-emergence, 504 h, 21 DAT, read-out: % activity found
Method: as §1, §2, §3, §6, §5

[2] = test system: Lolium multiflorum (LOLMU); settings: Lolium multiflorum, post-emergence, LOLMU, read-out: % activity found; for inhibition at 60 g/ha: 60 g of ai/ha alone; for inhibition at 12 g/ha: 12 g of ai/ha alone; for inhibition at 70 g/ha: 70 g of ai/ha alone; for inhibition at 750 g/ha: 750 g of ai/ha alone
Method: as §1, §2, §3, §6, §5

[3] = test system: Alopecurus myosuroides (ALOMY); settings: read-out: % activity found; for inhibition at 20 g/ha: 20 g of ai/ha alone; for inhibition at 60 g/ha: 60 g of ai/ha alone
Method: as §1, §2, §3, §4, §5

[4] = test system: Triticum aestivum (TRZAS); settings: Triticum aestivum, post-emergence, read-out: % activity found; for inhibition at 20 g/ha: 20 g of ai/ha alone; for inhibition at 60 g/ha: 60 g of ai/ha alone; for inhibition at 750 g/ha: 750 g of ai/ha alone
Method: as §1, §2, §3, §6, §5

[5] = test system: Fallopia (ex Polygonum) convolvulus (POLCO); settings: Fallopia convolvulus, post-emergence, 504 h, POLCO, 21 DAT, read-out: % activity found
Method: as §1, §2, §3, §6, §5

[6] = test system: Matricaria inodora (MATIN); settings: Tripleurospermum inodorum, post-emergence, 504 h, MATIN, 21 DAT, read-out: % activity found
Method: as §1, §2, §3, §6, §5

[7] = Cyperus esculentus, post-emergence, 504 h, read-out: % activity found
[8] = Zea mays, post-emergence, 240 h, read-out: % activity found

## COCc1cnc(C2=NC(C)(C(C)C)C(=O)N2)c(C(=O)O)c1 (racemic) [B4-2, (±)-2-[4,5-dihydro-4-methyl-4-(1-methylethyl)-5-oxo-1H-imidazol-2-yl]-5-(methoxymethyl)-3-pyridinecarboxylic acid]
Oryza sativa (ORYSA); 240 h, ORYSA, 10 DAT
  inhibition at 7 g/ha: 70%
Oryza sativa (ORYSA); 504 h, ORYSA, 21 DAT
  inhibition at 7 g/ha: 70%
Zea mays (ZEAMX); Zea mays, post-emergence, 504 h, ZEAMX, 21 DAT, 7 g of ai/ha alone, read-out: % activity found
  inhibition at 7 g/ha: 10%
Zea mays (ZEAMX); Zea mays, post-emergence, 504 h, ZEAMX, 21 DAT, 21 g of ai/ha alone, read-out: % activity found
  inhibition at 21 g/ha: 60%
[1]; Cyperus esculentus, post-emergence, 504 h, CYPES, 21 DAT, 7 g of ai/ha alone, read-out: % activity found
  inhibition at 7 g/ha: 0%
Avena fatua (AVEFA); AVEFA, 21 DAT, 21 g of ai/ha alone
  inhibition at 21 g/ha: 70%
Viola tricolor (VIOTR); 7 g of ai/ha alone
  inhibition at 7 g/ha: 20%
Viola tricolor (VIOTR); 21 g of ai/ha alone
  inhibition at 21 g/ha: 40%
[2]; 504 h, 21 DAT, 7 g of ai/ha alone
  inhibition at 7 g/ha: 80%

## CS(=O)(=O)c1cc(C(F)(F)F)ccc1C(=O)c1cnoc1C1CC1 [B3-3, (5-cyclopropyl-4-isoxazolyl)[2-(methylsulfonyl)-4-(trifluoromethyl)phenyl]methanone]
Oryza sativa (ORYSA); 240 h, ORYSA, 10 DAT, 20 g of ai/ha alone
  inhibition at 20 g/ha: 50%
[3]; 240 h, ALOMY, 10 DAT
  inhibition at 20 g/ha: 20%
  inhibition at 60 g/ha: 30%
[3]; 504 h, ALOMY, 21 DAT
  inhibition at 20 g/ha: 0%
  inhibition at 60 g/ha: 10%
[4]; 240 h, 10 DAT
  inhibition at 20 g/ha: 30%
  inhibition at 60 g/ha: 50%
[4]; 504 h, 21 DAT
  inhibition at 20 g/ha: 20%
  inhibition at 60 g/ha: 40%
[5]; 20 g of ai/ha alone
  inhibition at 20 g/ha: 0%
[5]; 60 g of ai/ha alone
  inhibition at 60 g/ha: 0%
Zea mays (ZEAMX); Zea mays, post-emergence, 504 h, ZEAMX, 21 DAT, 20 g of ai/ha alone, read-out: % activity found
  inhibition at 20 g/ha: 0%
Zea mays (ZEAMX); Zea mays, post-emergence, 504 h, ZEAMX, 21 DAT, 60 g of ai/ha alone, read-out: % activity found
  inhibition at 60 g/ha: 20%
[1]; Cyperus esculentus, post-emergence, 504 h, CYPES, 21 DAT, 20 g of ai/ha alone, read-out: % activity found
  inhibition at 20 g/ha: 0%
[2]; 240 h, 10 DAT
  inhibition at 60 g/ha: 30%
[2]; 504 h, 21 DAT, 20 g of ai/ha alone
  inhibition at 20 g/ha: 0%
[2]; 504 h, 21 DAT
  inhibition at 60 g/ha: 0%

## C#CCOc1cc(-n2nc(C(C)(C)C)oc2=O)c(Cl)cc1Cl [B5-2, 3-[2,4-dichloro-5-(2-propynyloxy)phenyl]-5-(1,1-dimethylethyl)-1,3,4-oxadiazol-2(3H)-one]
[3]; 504 h, ALOMY, 21 DAT, 12 g of ai/ha alone
  inhibition at 12 g/ha: 20%
[4]; 240 h, 10 DAT, 36 g of ai/ha alone
  inhibition at 36 g/ha: 40%
[6]; 12 g of ai/ha alone
  inhibition at 12 g/ha: 60%
[6]; 36 g of ai/ha alone
  inhibition at 36 g/ha: 60%
Zea mays (ZEAMX); Zea mays, post-emergence, 240 h, ZEAMX, 10 DAT, read-out: % activity found
  inhibition at 36 g/ha: 60%
Zea mays (ZEAMX); Zea mays, post-emergence, 504 h, ZEAMX, 21 DAT, read-out: % activity found
  inhibition at 36 g/ha: 40%
Avena fatua (AVEFA); AVEFA, 21 DAT, 12 g of ai/ha alone
  inhibition at 12 g/ha: 20%
[2]; 240 h, 10 DAT
  inhibition at 12 g/ha: 40%
[2]; 504 h, 21 DAT
  inhibition at 12 g/ha: 30%
[2]; 504 h, 21 DAT, 36 g of ai/ha alone
  inhibition at 36 g/ha: 65%

## CC(C)Oc1cc(-n2nc(C(C)(C)C)oc2=O)c(Cl)cc1Cl [B5-3, 3-[2,4-dichloro-5-(1-methylethoxy)phenyl]-5-(1,1-dimethylethyl)-1,3,4-oxadiazol-2(3H)-one]
Oryza sativa (ORYSA); 240 h, ORYSA, 10 DAT
  inhibition at 210 g/ha: 40%
Oryza sativa (ORYSA); 504 h, ORYSA, 21 DAT, 70 g of ai/ha alone
  inhibition at 70 g/ha: 0%
Oryza sativa (ORYSA); 504 h, ORYSA, 21 DAT
  inhibition at 210 g/ha: 0%
[4]; 240 h, 10 DAT, 70 g of ai/ha alone
  inhibition at 70 g/ha: 40%
[6]; 70 g of ai/ha alone
  inhibition at 70 g/ha: 70%
[6]; 210 g of ai/ha alone
  inhibition at 210 g/ha: 70%
Zea mays (ZEAMX); Zea mays, post-emergence, 504 h, ZEAMX, 21 DAT, 210 g of ai/ha alone, read-out: % activity found
  inhibition at 210 g/ha: 60%
Avena fatua (AVEFA); AVEFA, 21 DAT, 70 g of ai/ha alone
  inhibition at 70 g/ha: 10%
Avena fatua (AVEFA); AVEFA, 21 DAT, 210 g of ai/ha alone
  inhibition at 210 g/ha: 30%
[2]; 240 h, 10 DAT
  inhibition at 70 g/ha: 50%
[2]; 504 h, 21 DAT
  inhibition at 70 g/ha: 40%

## CC(C)c1nn(C(=O)NC(C)(C)C)c(=O)n1N [B6-1, 4-amino-N-(1,1-dimethylethyl)-4,5-dihydro-3-(1-methylethyl)-5-oxo-1H-1,2,4-triazole-1-carboxamide]
[3]; 504 h, ALOMY, 21 DAT, 750 g of ai/ha alone
  inhibition at 750 g/ha: 70%
[4]; 240 h, 10 DAT, 250 g of ai/ha alone
  inhibition at 250 g/ha: 10%
[4]; 240 h, 10 DAT
  inhibition at 750 g/ha: 20%
[4]; 504 h, 21 DAT
  inhibition at 750 g/ha: 70%
Zea mays (ZEAMX); Zea mays, post-emergence, 504 h, ZEAMX, 21 DAT, 750 g of ai/ha alone, read-out: % activity found
  inhibition at 750 g/ha: 10%
[1]; [7]
  inhibition at 250 g/ha: 0%
  inhibition at 750 g/ha: 0%
[2]; 240 h, 10 DAT
  inhibition at 750 g/ha: 60%
[2]; 504 h, 21 DAT
  inhibition at 750 g/ha: 70%

## CCOC(=O)C(Cl)Cc1cc(-n2nc(C)n(C(F)F)c2=O)c(F)cc1Cl (stereo not drawn) [B6-2, ethyl α,2-dichloro-5-[4-(difluoromethyl)-4,5-dihydro-3-methyl-5-oxo-1H-1,2,4-triazol-1-yl]-4-fluorobenzenepropanoate]
Oryza sativa (ORYSA); 240 h
  inhibition at 6 g/ha: 50%
[3]; 504 h
  inhibition at 6 g/ha: 0%
  inhibition at 18 g/ha: 0%
Zea mays (ZEAMX); ZEAMX, 21 DAT, rate (6) B6-2 6
  (7) activity found: 30%
Zea mays (ZEAMX); ZEAMX, 21 DAT, rate (6) B6-2 18
  (7) activity found: 40%
Zea mays (ZEAMX); [8]
  inhibition at 6 g/ha: 50%
  inhibition at 18 g/ha: 60%
[1]; CYPES, 21 DAT, rate (6) B6-2 18
  (7) activity found: 50%
Avena fatua (AVEFA)
  inhibition at 6 g/ha: 10%
